In one assay the target is T1, rat IBAT (Rattus norvegicus, UniProt Q62633).
T1 construct: expressed in transfected cells; host or cells: Cos 7
T1 sequence (Q62633 1-348): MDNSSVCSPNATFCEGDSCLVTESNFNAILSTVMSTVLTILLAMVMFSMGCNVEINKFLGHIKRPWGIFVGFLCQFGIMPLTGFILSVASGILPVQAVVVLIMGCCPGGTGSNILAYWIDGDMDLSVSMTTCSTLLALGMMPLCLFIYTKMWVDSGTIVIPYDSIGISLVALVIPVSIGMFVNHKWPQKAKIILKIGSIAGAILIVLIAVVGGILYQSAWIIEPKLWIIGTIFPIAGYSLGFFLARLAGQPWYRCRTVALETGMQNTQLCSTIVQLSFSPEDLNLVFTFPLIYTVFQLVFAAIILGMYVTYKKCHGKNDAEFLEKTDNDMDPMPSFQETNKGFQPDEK
The experiment in a line: In vitro assay of temporarily expressed rat IBAT transporter using Cos 7 cells (Test Example 8). The format is cell-based. To be noted: Cos 7 cells temporarily expressing rat IBAT; [3H] taurocholate 8 μM, 37° C., 60 minutes. The procedure: In Vitro Assay of Compounds Which Inhibit Temporarily Expressed Human IBAT Transporter or Rat IBAT Transporter Using Cos 7 Cells
In this test example, the in vitro assay of the compounds which inhibit temporarily expressed human IBAT transporter or rat IBAT transporter using Cos cells was carried out according to the method described in Am. J. Physiol., 274, G157-169.
That is, […] Cos 7 were inoculated on a 24-well cell plate. One day later, 0.3 μg per well of cDNA of a human IBAT or a rat IBAT was transfected by using FuGENE6 (manufactured by ROCHE PHARMACEUTICAL CO., LTD.). For the assay, the cells cultured for one day after the transfection were used and the following procedure was followed. The cells were washed once with an assay buffer, Hank's buffer solution containing 25 mM glucose and with 10 mM HEPES (pH 7.4), and then the assay buffer was replaced by an assay buffer to which the test compound was added. After adding [^3H] taurocholate to a final concentration of 8 μM, the cells were incubated at 37° C. for 60 minutes. [^3H] taurocholate was allowed to be incorporated in Cos 7 cells through human IBAT or rat IBAT. The reaction was stopped by washing twice with a buffer prepared by adding 1 mM taurocholate to the assay buffer and lyzing the cells with 0.2M NaOH. Measurement of radioactivity was carried out by introducing the cell lyzate in 4 ml of liquid scintillation cocktail, stirring the mixture well, and then measuring the radioactivity by a scintillation counter.

Another assay addresses T2, human IBAT (Homo sapiens, UniProt Q12908).
T2 construct: expressed in transfected cells; host or cells: Cos 7
T2 sequence (Q12908 1-348): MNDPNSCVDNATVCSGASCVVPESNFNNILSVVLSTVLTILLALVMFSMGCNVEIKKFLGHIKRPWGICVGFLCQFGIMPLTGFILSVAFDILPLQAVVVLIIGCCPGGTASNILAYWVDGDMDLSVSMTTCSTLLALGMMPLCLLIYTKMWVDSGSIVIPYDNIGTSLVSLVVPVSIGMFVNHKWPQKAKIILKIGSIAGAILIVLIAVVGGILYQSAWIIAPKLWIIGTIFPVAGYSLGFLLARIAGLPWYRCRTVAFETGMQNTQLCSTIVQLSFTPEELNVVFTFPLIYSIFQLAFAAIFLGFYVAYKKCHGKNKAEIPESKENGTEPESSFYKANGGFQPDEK
Kind of assay: In vitro assay of temporarily expressed human IBAT transporter using Cos 7 cells (Test Example 8). The class given is cell-based. To be noted: Cos 7 cells temporarily expressing human IBAT; [3H] taurocholate 8 μM, 37° C., 60 minutes. The method, boiled down:
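Cos 7 cells transiently transfected with human or rat IBAT cDNA, assayed one day later in Hank's buffer with 25 mM glucose, 10 mM HEPES (pH 7.4) plus compound. Uptake of 8 μM [^3H]taurocholate over 60 min at 37 °C, stopped with 1 mM taurocholate washes; lysate radioactivity by scintillation counting.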

Assay [1] has as its system bile acid loaded rats without partial ligation surgery. The experiment in a line: Cholestasis-caused hepatopathy model, bile acid loading without partial ligation, protocol B (Test Example 5). To be noted: 0.1 mg/kg twice a day 3.5 days, distilled water, average ± standard error. The format is in vivo, rat. As to the method:
(§1) “Cholestasis-Caused Hepatopathy” Model (Bile Duct Partial Ligation Model)
(§2) The “cholestasis-caused hepatopathy” model by partial ligation surgery of bile duct in this test example was handled by referring to the method by Kanno et al. [Kanzo (Liver) 43 Suppl (1): A126, 2002].
(§3) That is, the abdomen of a 7 to 10 weeks old SD (IGS) male rat was cut open under anesthesia with pentobarbital and partial ligation surgery of the bile duct was carried out. A blood sample was taken from the femoral vein before the surgery and this was taken as pre-administration value. The test compound and 200 mg/kg of bile acid were forcibly orally administered twice a day for 3.5 days from the next day of the surgery (protocol A). The test compound and 200 mg/kg of bile acid were forcibly orally administered twice a day for 3.5 days without carrying out the partial ligation surgery (protocol B). In both the cases, the test compound was dissolved or suspended in distilled water or an aqueous solution of 1% HCO60 (manufactured by NIPPON CHEMICALS COMPANY, LTD.). […] Moreover, to consider the influence of the surgery, a pseudo operation group (a Sham group) was established as necessary. After 6 hours from the administration of the drug on the last day of the test, a blood sample was taken from the abdominal aorta and AST (GOT), ALT (GPT), and ALP in the blood were measured by using a measurement kit (GOTII-HA TEST WAKO, GPTII-HA TEST WAKO, and ALKALINE PHOSPHER-HA TEST WAKO respectively, all manufactured by WAKO PURE CHEMICAL […], LTD.) with an auto analyzer (NITTECH ANALYZER SUPER Z818).

Assay [2] deals with steatohepatitis model rats. Kind of assay: Steatohepatitis model, choline-deficient diet (Test Example 15). The format is in vivo, rat. To be noted: 3 mg/kg oral once a day for 2 weeks; n = 4; average ± standard error. The source says:
In this test example, the steatohepatitis model was examined referring to the method of Okan A., et al. (Dig Dis Sci 47:2389-2397, 2002).
That is, 7 weeks old Wistar rats were fed with a choline-deficient diet (manufactured by Oriental Yeast Co., Ltd.) for 2 weeks to prepare a steatohepatitis model. A suspension of a test compound in an aqueous solution of 0.5% methyl cellulose (manufactured by WAKO PURE CHEMICAL […], LTD.) and an aqueous solution of 0.5% methyl cellulose (manufactured by WAKO PURE CHEMICAL […], LTD.) as a control were orally administered once a day for consecutive 2 weeks. On the day next to the last day of administration, a blood sample was taken from the abdominal aorta and AST (GOT) and ALT (GPT) in the blood were measured by using measuring kits (GOTII-HA TEST WAKO and GPTII-HA TEST WAKO, respectively, the both were manufactured by WAKO PURE CHEMICAL […], LTD.) on an auto analyzer (NITTECH ANALYZER SUPER Z818).

Assay [3] deals with bile duct partial ligation model. The experiment in a line: Cholestasis-caused hepatopathy model, bile duct partial ligation, protocol A (Test Example 5). The format is in vivo, rat. To be noted: 1 mg/kg twice a day 3.5 days, 1% HCO60, average ± standard error; for ALT: controls 417 ± 185 / 384 ± 156; for AST: controls 589 ± 221 / 643 ± 125; for ALP: controls 2318 ± 583 / 2204 ± 327. The procedure: as §1, §2, §3

Molecules are shown by their SMILES.

Regarding `CCCCC1(CCCC)CS(=O)(=O)c2ccc(N(C)C)cc2C(c2cccc(NC(=S)CCCCC[N+]34CCC(CC3)CC4)c2)N1.[Br-]` (stereo not drawn) [Example 1, 1-{5-[3-(3,3-Dibutyl-7-dimethylamino-1,1-dioxo-2,3,4,5-tetrahydro-1,4-benzothiazepin-5-yl)phenylthiocarbamoyl]pentyl}-1-azoniabicyclo[2.2.2]octane bromide], the IC50 – broadly, the point on the concentration scale where inhibition reaches its midpoint – at rat IBAT is 7 nM; at human IBAT, 25 nM. The same molecule showed an ALT in assay [1] (control 82 ± 17) of 53 ± 6 IU/L. For the same molecule, the AST in assay [1] (control 157 ± 35) is given as 100 ± 2 IU/L. The ALP in assay [1] (control 593 ± 77) is recorded as 453 ± 50 IU/L.

Turning to `CCCCC1(CCCC)CS(=O)(=O)c2ccc(N(C)C)cc2C(c2cccc(NC(=S)Nc3ccc(C[N+](C)(C)Cc4ccccc4)cc3)c2)N1.[Br-]` (stereo not drawn) [Example 3440], the IC50 at rat IBAT came out at 10 nM. This molecule yielded an IC50 at human IBAT of 37 nM. Also, in assay [2], the ALT was found to be 167 ± 93 IU/L and the AST was 125 ± 34 IU/L. In addition, in assay [3], the ALT is 155 ± 38 IU/L, the AST is 309 ± 37 IU/L and the ALP amounted to 1614 ± 189 IU/L.

For the molecule `C#CC[N+](C)(Cc1ccccc1)Cc1ccc(NC(=S)Nc2cccc(C3NC(CCCC)(CCCC)CS(=O)(=O)c4ccc(N(C)C)cc43)c2)cc1` (stereo not drawn) [Example 3448], at human IBAT, the IC50 was determined as 37 nM. In assay [2], this molecule showed an ALT of 143 ± 79 IU/L and an AST of 134 ± 23 IU/L. Also, in assay [3], the ALT stood at 181 ± 79 IU/L, the AST is 352 ± 210 IU/L and the ALP was determined as 1148 ± 332 IU/L.

`CCCCC1(CCCC)CS(=O)(=O)c2ccc(N(C)C)cc2C(c2cccc(NC(=S)Nc3ccc(C[N+]4(Cc5ccccc5)CCC(O)CC4)cc3)c2)N1.[Br-]` (stereo not drawn) [Example 3605]: the IC50 against human IBAT worked out at 39 nM. Further, in assay [2], the ALT was found to be 121 ± 36 IU/L and the AST is 80 ± 34 IU/L. In assay [3], this molecule displayed an ALT of 258 ± 219 IU/L, an AST of 487 ± 382 IU/L and an ALP of 1489 ± 533 IU/L.

`CCCCC1(CCCC)CS(=O)(=O)c2ccc(N(C)C)cc2C(c2cccc(NC(=S)Nc3ccc(C[N+]45CCC(c6ccccc6)(CC4)CC5)cc3)c2)N1.[Br-]` (stereo not drawn) [Example 3696] came in with an IC50 on human IBAT of 39 nM. In assay [2], this molecule yielded an ALT of 145 ± 34 IU/L and an AST of 98 ± 23 IU/L. In assay [3], this molecule returned an ALT of 191 ± 21 IU/L, an AST of 325 ± 87 IU/L and an ALP of 1209 ± 125 IU/L.

In the case of `CCCCC1(CCCC)CS(=O)(=O)c2ccc(N(C)C)cc2C(c2cccc(NC(=S)Nc3ccc(C[n+]4ccc(C(C)(C)C)cc4)cc3)c2)N1.[Br-]` (stereo not drawn) [Example 3713], it took 37 nM to reach half-maximal inhibition at human IBAT (IC50). Moreover, in assay [2], the ALT was found to be 118 ± 36 IU/L and the AST came out at 77 ± 37 IU/L. In assay [3], this molecule yielded an ALT of 163 ± 96 IU/L, an AST of 280 ± 61 IU/L and an ALP of 1008 ± 289 IU/L.

As to `CCCCC1(CCCC)CS(=O)(=O)c2ccc(N(C)C)cc2C(c2cccc(NC(=S)Nc3ccc(C[n+]4cccc(CCCO)c4)cc3)c2)N1.[Br-]` (stereo not drawn) [Example 3747], the IC50 against human IBAT was determined as 45 nM. For the same molecule, in assay [2], the ALT stood at 102 ± 50 IU/L and the AST turned out to be 63 ± 86 IU/L. In assay [3], this molecule registered an ALT of 146 ± 70 IU/L, an AST of 245 ± 81 IU/L and an ALP of 960 ± 259 IU/L.

At human IBAT, `CCCCC1(CCCC)CS(=O)(=O)c2ccc(N(C)C)cc2C(c2cccc(NC(=S)Nc3ccc(C[n+]4cccc(CCC(=O)OC)c4)cc3)c2)N1.[Br-]` (stereo not drawn) [Example 3752] showed an IC50 of 41 nM. In assay [2], this molecule showed an ALT of 88 ± 45 IU/L and an AST of 69 ± 98 IU/L. Further, in assay [3], the ALT stood at 165 ± 47 IU/L, the AST was found to be 358 ± 87 IU/L and the ALP is reported as 1112 ± 184 IU/L.

`CCCCC1(CCCC)CS(=O)(=O)c2ccc(N(C)C)cc2C(c2cccc(NC(=S)Nc3ccc(C[n+]4ccccc4CCC)cc3)c2)N1.[Br-]` (stereo not drawn) [Example 5408]: the IC50 against human IBAT was found to be 32 nM. In assay [2], this molecule came in with an ALT of 149 ± 38 IU/L and an AST of 103 ± 45 IU/L. In assay [3], the ALT is 197 ± 45 IU/L, the AST is recorded as 198 ± 65 IU/L and the ALP was found to be 1005 ± 102 IU/L.

The values are drawn from patent US7803792B2, “Quaternary ammonium compounds” (Asahi Kasei Pharma Corporation, priority 2002, dated 2010).
